≈ marks a conversion by molar mass, not a printed value. Where two headings read alike, the source gives them in different places.
Legend:
Assay type in all cases: cell-based
S. pneumoniae ATCC 49619 = test: IHMA QC MIC
Source text: (§1) Supplement jm2c01905_si_004.xlsx, sheet "QC" | column: MIC [µg/mL]

H. influenzae ATCC 49247 = test: IHMA QC MIC; settings: Haemophilus influenzae, read-out: MIC
Source text: as §1

H. influenzae ATCC 49766 = test: IHMA QC MIC
Source text: as §1

E. coli ATCC 35218 = test: IHMA QC MIC; settings: Escherichia coli, ATCC35218; read-out: MIC (QC, repeated tests)
Method: (§2) The panel of Hungarian clinical isolates and controls measured following the same method as detailed above, and albeit measurements were carried out in 384-well microtiter plates (Corning Inc.).

A. baumannii ATCC 17978 = test: IHMA QC MIC; settings: Acinetobacter baumannii, ATCC17978; read-out: MIC (QC, repeated tests)
Method: as §2

[1] = system: 100 A. baumannii strains (50 MDR, 50 non-MDR); test: MIC broth microdilution at IHMA Europe, panel of 100 strains; settings: Acinetobacter baumannii, read-out: MIC

Compound: C[C@@H](O)[C@H]1C(=O)N2C(C(=O)O)=C(SCCNC=N)C[C@H]12 [Imipenem, imipenem]
- MIC (S. pneumoniae ATCC 49619; QC strain S. pneumoniae ATCC 49619, test date 2021-11-26): 0.03 mg/L (≈ 0.1 µM)
- MIC (S. pneumoniae ATCC 49619; Streptococcus pneumoniae, ATCC49619, QC strain S. pneumoniae ATCC 49619, test date 2021-11-11, read-out: MIC): 0.03 mg/L (≈ 0.1 µM)
- MIC (H. influenzae ATCC 49247; ATCC49247, QC strain H. influenzae ATCC 49247, test date 2021-11-11): 0.25 mg/L (≈ 0.835 µM)
- MIC (H. influenzae ATCC 49247; ATCC49247, QC strain H. influenzae ATCC 49247, test date 2021-11-26): 0.12 mg/L (≈ 0.401 µM)
- MIC (H. influenzae ATCC 49766; Haemophilus influenzae, ATCC49766, QC strain H. influenzae ATCC 49766, test date 2021-11-11, read-out: MIC): 0.5 mg/L (≈ 1.67 µM)
- MIC (H. influenzae ATCC 49766; QC strain H. influenzae ATCC 49766, test date 2021-11-26): 0.5 mg/L (≈ 1.67 µM)
- MIC (E. coli ATCC 35218): ≤ 0.25 mg/L
- MIC (A. baumannii ATCC 17978): ≤ 0.25 mg/L
- MIC ([1]; A. baumannii IHMA 1769393, Lithuania 2018, Non-MDR): ≤ 0.25 mg/L
- MIC ([1]; A. baumannii IHMA 1769782, Israel 2018, MDR): > 16 mg/L
- MIC ([1]; A. baumannii IHMA 1769910, Israel 2018, Non-MDR): ≤ 0.25 mg/L
- MIC ([1]; A. baumannii IHMA 1790317, Czech Republic 2018, Non-MDR): ≤ 0.25 mg/L
- MIC ([1]; A. baumannii IHMA 1790916, Romania 2018, Non-MDR): ≤ 0.25 mg/L
- MIC ([1]; A. baumannii IHMA 1791877, Israel 2018, MDR): > 16 mg/L
- MIC ([1]; A. baumannii IHMA 1792961, Jordan 2018, MDR): > 16 mg/L
- MIC ([1]; A. baumannii IHMA 1795669, Tunisia 2018, Non-MDR): 0.5 mg/L (≈ 1.67 µM)
- MIC ([1]; A. baumannii IHMA 1814276, Lebanon 2018, MDR): > 16 mg/L
- MIC ([1]; A. baumannii IHMA 1815198, Kuwait 2018, MDR): > 16 mg/L
- MIC ([1]; A. baumannii IHMA 1815856, Israel 2018, MDR): > 16 mg/L
- MIC ([1]; A. baumannii IHMA 1821468, South Africa 2018, Non-MDR): 0.5 mg/L (≈ 1.67 µM)
- MIC ([1]; A. baumannii IHMA 1829500, Georgia 2018, Non-MDR): ≤ 0.25 mg/L
- MIC ([1]; A. baumannii IHMA 1830924, United Kingdom 2018, Non-MDR): ≤ 0.25 mg/L
- MIC ([1]; A. baumannii IHMA 1849819, Kuwait 2018, MDR): > 16 mg/L
- MIC ([1]; A. baumannii IHMA 1849829, Kuwait 2018, Non-MDR): ≤ 0.25 mg/L
- MIC ([1]; A. baumannii IHMA 1857118, Slovenia 2018, Non-MDR): ≤ 0.25 mg/L
- MIC ([1]; A. baumannii IHMA 1863631, France 2018, Non-MDR): ≤ 0.25 mg/L
- MIC ([1]; A. baumannii IHMA 1870054, United States 2018, Non-MDR): ≤ 0.25 mg/L
- MIC ([1]; A. baumannii IHMA 1884428, Italy 2018, Non-MDR): ≤ 0.25 mg/L
- MIC ([1]; A. baumannii IHMA 1884990, Germany 2018, Non-MDR): ≤ 0.25 mg/L
- MIC ([1]; A. baumannii IHMA 1900538, Turkey 2018, Non-MDR): ≤ 0.25 mg/L
- MIC ([1]; A. baumannii IHMA 1913773, Kenya 2018, Non-MDR): ≤ 0.25 mg/L
- MIC ([1]; A. baumannii IHMA 1926285, Qatar 2018, Non-MDR): ≤ 0.25 mg/L
- MIC ([1]; A. baumannii IHMA 1926288, Qatar 2018, MDR): > 16 mg/L
- MIC ([1]; A. baumannii IHMA 1957343, Portugal 2019, Non-MDR): ≤ 0.25 mg/L
- MIC ([1]; A. baumannii IHMA 1963732, Turkey 2019, MDR): > 16 mg/L
- MIC ([1]; A. baumannii IHMA 1967860, Spain 2019, Non-MDR): ≤ 0.25 mg/L
- MIC ([1]; A. baumannii IHMA 1971673, Latvia 2019, MDR): > 16 mg/L
- MIC ([1]; A. baumannii IHMA 1975075, Israel 2019, Non-MDR): ≤ 0.25 mg/L
- MIC ([1]; A. baumannii IHMA 1977077, Kuwait 2019, Non-MDR): ≤ 0.25 mg/L
- MIC ([1]; A. baumannii IHMA 1983151, Greece 2019, MDR): > 16 mg/L
- MIC ([1]; A. baumannii IHMA 1984665, Lithuania 2019, MDR): > 16 mg/L
- MIC ([1]; A. baumannii IHMA 1986678, Turkey 2019, Non-MDR): 0.5 mg/L (≈ 1.67 µM)
- MIC ([1]; A. baumannii IHMA 1986738, Turkey 2019, MDR): > 16 mg/L
- MIC ([1]; A. baumannii IHMA 1987162, Croatia 2019, MDR): > 16 mg/L
- MIC ([1]; A. baumannii IHMA 1993615, Turkey 2019, MDR): > 16 mg/L
- MIC ([1]; A. baumannii IHMA 1994284, Italy 2019, MDR): > 16 mg/L
- MIC ([1]; A. baumannii IHMA 1995161, Czech Republic 2019, Non-MDR): ≤ 0.25 mg/L
- MIC ([1]; A. baumannii IHMA 1997936, Morocco 2019, Non-MDR): ≤ 0.25 mg/L
- MIC ([1]; A. baumannii IHMA 1999178, Belgium 2019, Non-MDR): ≤ 0.25 mg/L
- MIC ([1]; A. baumannii IHMA 2003279, Turkey 2019, MDR): > 16 mg/L
- MIC ([1]; A. baumannii IHMA 2014367, Jordan 2019, Non-MDR): ≤ 0.25 mg/L
- MIC ([1]; A. baumannii IHMA 2014931, South Africa 2019, Non-MDR): ≤ 0.25 mg/L
- MIC ([1]; A. baumannii IHMA 2019315, Romania 2019, Non-MDR): ≤ 0.25 mg/L
- MIC ([1]; A. baumannii IHMA 2020360, Croatia 2019, MDR): > 16 mg/L
- MIC ([1]; A. baumannii IHMA 2031511, Greece 2019, Non-MDR): ≤ 0.25 mg/L
- MIC ([1]; A. baumannii IHMA 2031524, Greece 2019, MDR): > 16 mg/L
- MIC ([1]; A. baumannii IHMA 2034657, Tunisia 2019, Non-MDR): ≤ 0.25 mg/L
- MIC ([1]; A. baumannii IHMA 2035089, Serbia 2019, MDR): > 16 mg/L
- MIC ([1]; A. baumannii IHMA 2035134, Serbia 2019, Non-MDR): ≤ 0.25 mg/L
- MIC ([1]; A. baumannii IHMA 2038976, Hungary 2019, MDR): > 16 mg/L
- MIC ([1]; A. baumannii IHMA 2051503, Serbia 2019, MDR): > 16 mg/L
- MIC ([1]; A. baumannii IHMA 2058329, Slovenia 2019, Non-MDR): ≤ 0.25 mg/L
- MIC ([1]; A. baumannii IHMA 2065587, France 2019, Non-MDR): ≤ 0.25 mg/L
- MIC ([1]; A. baumannii IHMA 2099294, United Kingdom 2019, Non-MDR): ≤ 0.25 mg/L
- MIC ([1]; A. baumannii IHMA 2129256, Qatar 2019, Non-MDR): ≤ 0.25 mg/L
- MIC ([1]; A. baumannii IHMA 2154584, Israel 2020, MDR): 16 mg/L (≈ 53.4 µM)
- MIC ([1]; A. baumannii IHMA 2155340, Kenya 2020, MDR): 16 mg/L (≈ 53.4 µM)

Reference: PMC10041525, “New Dual Inhibitors of Bacterial Topoisomerases with Broad-Spectrum Antibacterial Activity and In Vivo Efficacy against Vancomycin-Intermediate Staphylococcus aureus” (Journal of Medicinal Chemistry, 2023)
